Experimental data from patent publication US9783547B2, “Water soluble 4-azapodophyllotoxin analogs” (CENTRE NATIONAL DE LA RECHERCHE SCIENTIFIQUE (CNRS), priority 2014, dated 2017).
Counter-ions that a name gives are not always drawn.

Experiments:
[1] = test system: tubulin; test: Tubulin polymerization inhibition assay (DAPI fluorescence); format: biochemical; conditions: for IC50: tubulin 1 mg/ml, DAPI, read-out: IPT (inhibition of tubulin polymerization) IC50; for Inhibition of tubulin polymerization at 30 μM: IC50 ND
Source text: Fluorescence was then read at the excitation wavelength of 360 nm and emission of 450 nm.

[2] = test system: EAhy 926 endothelial cell line; test: Endothelial cell morphology evaluation (rounding up); format: cell-based; conditions: Homo sapiens, EA.hy 926; 2 h incubation; rounding up of more than 15% of cells; read-out: Cmarr EA.hy 926: lowest concentration at which cell rounding up was observed
Source text: To assess the effects of the compounds on the morphology of endothelial cells, the EAhy 926 endothelial cell line was used, which is derived from the fusion of human umbilical vein endothelial cells (HUVEC) with the permanent human cell line A549 (Edgell et al, Proc. Natl. Acad. Sci. U.S.A., 1983, vol 80, issue 12, 3734-3737). The EAhy 926 cell line is considered as a good representative of native HUVEC because it expresses most of the biochemical markers of parental HUVEC (Bouis et al., Angiogenesis., 2001, 4, 91-102). EAhy 926 cells were grown in DMEM containing 2 mM L-glutamine, 10% foetal bovine serum, 100 U/mL penicillin and 100 μg/mL streptomycin in a humidified atmosphere (37° C., 5% CO2). Exponentially growing EAhy 926 cells were plated onto 96 well plates at 5000 cells/100 μL/well. Twenty-four hours after plating, the medium was aspirated, and 100 μL of medium containing the test compound was added to the well containing the cells (in triplicate) and incubated for 2 h (37° C., 5% CO2). The highest concentration used was 100 μM followed by serial two-fold dilutions down to low nanomolar concentrations, if needed for the most morphologically active compounds. After the 2 h-incubation period, digital photographs were taken of representative centre areas of each well at a magnification of 100× and 200×. The results are presented as the minimum concentration that could elicit the rounding up of more than 15% of cells in a field in order to exclude normal mitotic cells which is less that 15% in control 1% DMSO treated cells. Triplicate concentrations on the same plate were routinely carried out. CA4 was included in the experiments as a positive internal standard.
Compounds of the invention were first tested on EAhy 926 endothelial cells, which are transformed HUVEC (human umbilical vein endothelial cells). These cells undergo a rounding up upon a short 2 hour exposure to vascular disrupting agents, e.g. combretastatin A4.

[3] = test system: B16 melanoma cells; test: Cytotoxicity assay for murine cancer cells (MTT); format: cell-based; conditions: Mus musculus, 48 h exposure
Protocol: Murine B16 melanoma cells, Lewis lung carcinoma cells and colon 26 carcinoma cells were grown in DMEM medium containing 2 mM L-glutamine, 10% foetal bovine serum, 100 U/mL penicillin and 100 μg/mL streptomycin (37° C., 5% CO2). […] Exponentially growing cells were plated onto 96-well plates at 5000 cells per well in 100 μL of culture medium. 24 h after plating, 100 μl of medium containing the tested compound at final concentrations ranging from 0.01 to 100 μM were added to the wells (in triplicate) containing the cells, and incubated for 48 h at 37° C. and 5% CO2. After the 48 h exposure period to the test compounds, cell viability was assayed using the MTT (methylthiazoletetrazolium) test (Scudiero et al., Cancer Res. 1988, 48, 4827-4833) and absorbance was read at 562 nm in a microplate reader (BioKinetics Reader, EL340). Appropriate controls with DMEM only and MTT were run to subtract background absorbance.

melting point [°C]	IC50 [1] [µM]	Structure (SMILES)	minimal effective concentration [2] [µM]	IC50 [3] [µM]	Inhibition of tubulin polymerization at 30 μM [1]
260		O=C1CCCc2nc3cc4c(cc3c(Nc3ccc5c(c3)OCO5)c21)OCO4 (as salt: hydrochloride) [SGR 355•HCl, 6,7-(Methylenedioxy)-9-(3,4-methylenedioxyphenyl-amino)-3,4-dihydroacridin-1(2H)-one, hydrochloride]			
258		COc1cccc(Nc2c3c(nc4cc5c(cc24)OCO5)CCCC3=O)c1 (as salt: hydrochloride) [SGR 356•HCl, 6,7-(Methylenedioxy)-9-(3-methoxyphenylamino)-3,4-dihydroacridin-1(2H)-one, hydrochloride]			
267		COc1cc(Nc2c3c(nc4cc5c(cc24)OCO5)CCC3=O)cc(OC)c1OC (as salt: hydrochloride) [SGR 358•HCl, 6,7-(Methylenedioxy)-9-(3,4,5-trimethoxyphenylamino)-2,3-dihydro-1H-cyclopenta[b]quinolin-1-one, hydrochloride]			
256		COc1ccc(Nc2c3c(nc4cc5c(cc24)OCO5)CCC3=O)cc1OC (as salt: hydrochloride) [SGR 359•HCl, 6,7-(Methylenedioxy)-9-(3,4-dimethoxyphenylamino)-2,3-dihydro-1H-cyclopenta[b]quinolin-1-one, hydrochloride]			
266		COc1cc(Nc2c3c(nc4cc5c(cc24)OCCO5)CCCC3=O)cc(OC)c1OC (as salt: hydrochloride) [SGR 360•HCl, 6,7-(Ethylenedioxy)-9-(3,4,5-trimethoxyphenylamino)-3,4-dihydroacridin-1(2H)-one, hydrochloride]			
254 to 255		COc1cc(Nc2c3c(nc4cc5c(cc24)OCCO5)CCCC3=O)cc(OC)c1 (as salt: hydrochloride) [SGR 361•HCl, 6,7-(Ethylenedioxy)-9-(3,5-dimethoxyphenylamino)-3,4-dihydroacridin-1(2H)-one, hydrochloride]			
256		COc1cc(Nc2c3c(nc4cc5c(cc24)OCO5)CCCC3=O)cc(OC)c1 (as salt: hydrochloride) [SGR 363•HCl, 6,7-(Methylenedioxy)-9-(3,5-dimethoxyphenylamino)-3,4-dihydroacridin-1(2H)-one, hydrochloride]			
216		COc1cc(Nc2c3c(nc4cc(C)c(C)cc24)CCCC3=O)cc(OC)c1OC (as salt: hydrochloride) [SGR 364•HCl, 6,7-(Dimethyl)-9-(3,4,5-trimethoxyphenylamino)-3,4-dihydroacridin-1(2H)-one, hydrochloride]			
	1.04	COc1cc(NC2=C3C(=O)OCC3N(C)c3cc4c(cc32)OCO4)cc(OC)c1OC (stereo not drawn) [SGR 230, reference compound]	0.12	38.4	
	0.42	COc1cc(Nc2c3c(nc4cc5c(cc24)OCO5)COC3=O)cc(OC)c1OC [SGR 231, reference compound]	1.95	0.4	
		O=C1CCCc2nc3cc4c(cc3cc21)OCO4 [SGR 304]	> 100	> 100	ND (33% à 30 μM)
		O=C1CCCc2c1cc1cc3c(cc1[n+]2[O-])OCO3 [SGR 305]	> 100	> 100	ND (22% à 30 μM)
		O=C1CCCc2nc3cc4c(cc3c(Cl)c21)OCO4 [SGR 306]	12.5	> 100	ND (3% à 30 μM)
		COc1cc(Nc2c3c(nc4cc5c(cc24)OCO5)CCCC3O)cc(OC)c1OC (stereo not drawn) [SGR 308]	25	29.5	ND (31% à 30 μM)
	18.2	COc1cc(Nc2c3c(nc4cc5c(cc24)OCO5)CCC=C3)cc(OC)c1OC [SGR 309]	3.13	11	
		O=C1CCCc2nc3cc4c(cc3c(Nc3ccc5c(c3)OCO5)c21)OCO4 [SGR 355•HCl, 6,7-(Methylenedioxy)-9-(3,4-methylenedioxyphenyl-amino)-3,4-dihydroacridin-1(2H)-one, hydrochloride]	100	17.4	
		COc1cccc(Nc2c3c(nc4cc5c(cc24)OCO5)CCCC3=O)c1 [SGR 356•HCl, 6,7-(Methylenedioxy)-9-(3-methoxyphenylamino)-3,4-dihydroacridin-1(2H)-one, hydrochloride]	50	> 100	
		COc1cc(CNc2c3c(nc4cc5c(cc24)OCO5)CCCC3=O)cc(OC)c1OC.Cl [SGR 357•HCl]	25	8.9	ND (18% à 30 μM)
		COc1cc(Nc2c3c(nc4cc5c(cc24)OCO5)CCC3=O)cc(OC)c1OC [SGR 358•HCl, 6,7-(Methylenedioxy)-9-(3,4,5-trimethoxyphenylamino)-2,3-dihydro-1H-cyclopenta[b]quinolin-1-one, hydrochloride]	0.25	1.01	
		COc1ccc(Nc2c3c(nc4cc5c(cc24)OCO5)CCC3=O)cc1OC [SGR 359•HCl, 6,7-(Methylenedioxy)-9-(3,4-dimethoxyphenylamino)-2,3-dihydro-1H-cyclopenta[b]quinolin-1-one, hydrochloride]	25	17.4	
		COc1cc(Nc2c3c(nc4cc5c(cc24)OCCO5)CCCC3=O)cc(OC)c1OC [SGR 360•HCl, 6,7-(Ethylenedioxy)-9-(3,4,5-trimethoxyphenylamino)-3,4-dihydroacridin-1(2H)-one, hydrochloride]	0.06	8.1	
		COc1cc(Nc2c3c(nc4cc5c(cc24)OCO5)CCCC3=O)cc(OC)c1 [SGR 363•HCl, 6,7-(Methylenedioxy)-9-(3,5-dimethoxyphenylamino)-3,4-dihydroacridin-1(2H)-one, hydrochloride]	0.06	1.4	
		COc1cc(Nc2c3c(nc4cc(C)c(C)cc24)CCCC3=O)cc(OC)c1OC [SGR 364•HCl, 6,7-(Dimethyl)-9-(3,4,5-trimethoxyphenylamino)-3,4-dihydroacridin-1(2H)-one, hydrochloride]	6.25	12.6	

Structure (SMILES)	melting point [°C]	IC50 [1] [µM]	minimal effective concentration [2] [µM]	IC50 [3] [µM]	Inhibition of tubulin polymerization at 30 μM [1]
COc1ccc(/C=C\c2cc(OC)c(OC)c(OC)c2)cc1O [combretastatin A4, reference compound]		[…]			
COc1cc([C@@H]2c3cc4c(cc3[C@H](O)[C@H]3COC(=O)[C@H]23)OCO4)cc(OC)c1OC [podophyllotoxin]		[…]			
